From publication PMC4234510, “Plasmodium falciparum UvrD activities are downregulated by DNA-interacting compounds and its dsRNA inhibits malaria parasite growth” (BMC Biochemistry, 2014)
Where two headings read alike, the source gives them in different places. Starred links: 1 amine or outer side, 2 acyl side, 3 side chain; linkers in the order of their positions; H or OH if unused. Positions of bridges follow the written chain, without caps; N, C: chain ends. Non-standard residues stand in square brackets, D forms with d. Residues, ends and D or L forms follow the SMILES beside them. Chains are numbered I, II in the order given. Actinocin(9to1) = Cc1c2oc3c(C)ccc(C(=O)[*:1])c3nc-2c(C(=O)[*:2])c(N)c1=O; NMeV = CN[C@H](C(=O)O)C(C)C; Sar = CNCC(=O)O

Experiments:
[1] = test system: malaria parasite; settings: cited from earlier work
[2] = test system: PfUDN; assay: ssDNA-dependent ATPase assay of PfUDN; assay type: biochemical, Plasmodium falciparum; settings: for effect on ssDNA dependent ATPase activity of PfUDN: compound 20 μM, PfUDN 100 nM, reaction mixture (DNA) preincubated 15 min with compound, Figure 1A; for IC50: inhibitor 0.2-5.0 μM (ciprofloxacin 0.5-30 μM), read-out: IC50, inhibition of ssDNA-dependent ATPase activity of PfUDN
Procedure: Standard protocol of ATPase assay was followed as described in the previous report. The hydrolysis of ATP catalyzed by PfUDN was assayed by measuring the formation of Pi from [γ-^32P] ATP. The reaction mixture of 10 μl contained [γ-^32P] ATP (specific activity 222 TBq.mmol^-1) and cold ATP (1 mM), ATPase buffer (20 mM Tris-HCl, pH 8.0, 8 mM DTT, 1.0 mM MgCl2, 20 mM KCl and 16 μg/ml BSA), purified PfUDN and 50 ng or 100 ng of M13 mp19 ssDNA. The reaction mixtures were incubated at 37°C for 60 min. This was followed by thin layer chromatography (TLC), and the quantitation was done using Alpha Imager-EP/Image-J software ( http://rsbweb.nih.gov/ij/). In order to study the effect of various compounds on ssDNA-dependent ATPase activity, different compounds were added into the reaction mixture prior to the addition of the PfUDN. In another set of experiment, PfUDN was pre-incubated (15 min) with these compounds in order to obtain the insight of inhibitory mechanism. All the experiments were performed at least two times and quantification data was used to calculate the standard deviation using Microsoft Excel 2010 and mean value was used to prepare the graph.

[3] = test system: PfUDN; assay: DNA helicase (unwinding) assay of PfUDN; assay type: biochemical, Plasmodium falciparum; settings: for effect on DNA unwinding (helicase) activity of PfUDN: compound 20 μM, partial duplex substrate, Figure 3; for effect on helicase activity of PfUDN at lower concentration: upto 5 μM concentration tested (data not shown); for IC50: inhibitor 0.5-5.0 μM, unit printed in text b27, not in table or picture labels, read-out: IC50, inhibition of helicase (DNA unwinding) activity of PfUDN
Procedure: The specially designed partial duplex substrate consisted of a ^32P-labelled 47-mer DNA oligodeoxynucleotide annealed to M13mp19 phage ssDNA. This oligodeoxynucleotide of the nucleotide sequence 5'- (T)15[…](T)15-3' contains 15 base-pairs of non-complementary region (T)15 at both the 5’ and 3’ ends. Oligodeoxynucleotide was labeled at 5′-end with T4 polynucleotide kinase (PNK) (5U) (New England Biolabs) and 1.85 MBq of [γ-^32P] ATP (specific activity 222 TBq/mmol) at 37°C for one hour and then annealed using standard annealing buffer (20 mM Tris-HCl, pH 7.5, 10 mM MgCl2, 100 mM NaCl, 1 mM DTT) with 0.5 μg of single-stranded circular M13mp19 (+) phage DNA by heating at 95°C for 1 min and then transferring immediately to 65°C for 2 min and then slow cooling to room temperature. Using gel filtration through a Sepharose 4B column (Pharmacia, Sweden) the non-hybridized oligodeoxynucleotide was removed. The reaction volume of 10 μl containing the ^32P-labeled helicase substrate (1000 cpm/10 μl) in appropriate buffer (20 mMTris-HCl, pH 8.0, 8 mM DTT, 1.0 mM MgCl2, 20 mMKCl and 16 μg/ml BSA) and PfUDN was incubated at 37°C for 60 min. The substrate and products were separated by electrophoresis on a nondenaturing 12% PAGE and the gel was exposed to hyper film for autoradiography or scanned on phosphoimager. In order to study the effect of DNA-interacting compounds on helicase activity, different compounds were added to the helicase reaction mixture prior to the addition of the PfUDN helicase. All the experiments were performed in duplicate and quantitation of both the substrate and unwound DNA bands was done using AlphaImager-EP/Image-J software ( http://rsbweb.nih.gov/ij/). Quantification data was used to calculate the standard deviation using Microsoft Excel 2010 and mean value was used to prepare the graph.

[4] = test system: PfDH60; settings: Table 2; no unit and no reference given; read-out: inhibitory potential for helicase activity, PfDH60; cited from earlier work
[5] = test system: PfH45; settings: comparison column of Table 1; no unit and no reference given; read-out: inhibitory potential for ATPase activity, PfH45; cited from earlier work
[6] = test system: PfH45; settings: Table 2; no unit and no reference given; read-out: inhibitory potential for helicase activity, PfH45; cited from earlier work
[7] = test system: PfD66/PfDDX19; settings: Table 2; no unit and no reference given; read-out: inhibitory potential for helicase activity, PfD66/PfDDX19; cited from earlier work
[8] = test system: PfDH60; settings: comparison column of Table 1; no unit and no reference given; read-out: inhibitory potential for ATPase activity, PfDH60; cited from earlier work
[9] = test system: PfD66/PfDDX19; settings: comparison column of Table 1; no unit and no reference given; read-out: inhibitory potential for ATPase activity, PfD66/PfDDX19; cited from earlier work
[10] = unit printed in text b20, not in table or picture labels

## O=C(O)c1cn(C2CC2)c2cc(N3CCNCC3)c(F)cc2c1=O [Ciprofloxacin, ciprofloxacin]
[1]
  inhibition of malaria parasite growth: found effective
[2]
  effect on ssDNA dependent ATPase activity of PfUDN: weakly inhibit
[2]; unit printed in text b20, not in table or picture labels, listed as ciprofloxacin
  IC50: ~10000 nM
[2]; [10]
  IC50: 9900 nM
[3]
  effect on DNA unwinding (helicase) activity of PfUDN: inhibit the DNA unwinding activity of PfUDN effectively
  effect on helicase activity of PfUDN at lower concentration: failed to show appreciable inhibition

## N=C(N)c1ccc(-c2cc3ccc(C(=N)N)cc3[nH]2)cc1 [DAPI]
[2]
  effect on ssDNA dependent ATPase activity of PfUDN: inhibit

## COc1cccc2c1C(=O)c1c(O)c3c(c(O)c1C2=O)C[C@@](O)(C(C)=O)C[C@@H]3O[C@H]1C[C@H](N)[C@H](O)[C@H](C)O1 [Daunorubicin, daunorubicin]
[2]
  effect on ssDNA dependent ATPase activity of PfUDN: top four inhibitors
  IC50: ~3000 nM
[3]
  effect on DNA unwinding (helicase) activity of PfUDN: inhibit the DNA unwinding activity of PfUDN effectively
  IC50: 3000 nM
[3]; listed as daunorubicin
  IC50: ~3000 nM
[4]
  IC50: 300 nM
[5]
  IC50: 5000 nM
[6]
  IC50: 1500 nM

## CC[n+]1c(-c2ccccc2)c2cc(N)ccc2c2ccc(N)cc21 [Ethidium bromide, ethidium bromide]
[2]
  effect on ssDNA dependent ATPase activity of PfUDN: top four inhibitors
[3]
  effect on DNA unwinding (helicase) activity of PfUDN: inhibit the DNA unwinding activity of PfUDN effectively
  IC50: 4800 nM
[4]
  IC50: 1500 nM
[7]
  IC50: 1000 nM
[8]
  IC50: 2500 nM
[5]
  IC50: 1500 nM
[9]
  IC50: 1500 nM
[6]
  IC50: 1000 nM

## Cn1cc(NC(=O)c2cc(NC(=O)CN=C(N)N)cn2C)cc1C(=O)NCCC(=N)N [Netropsin, netropsin]
[2]
  effect on ssDNA dependent ATPase activity of PfUDN: top four inhibitors
[2]; [10]
  IC50: 3100 nM
[3]
  effect on DNA unwinding (helicase) activity of PfUDN: inhibit the DNA unwinding activity of PfUDN effectively
  IC50: 4700 nM
[4]
  IC50: 1200 nM
[7]
  IC50: 500 nM
[5]
  IC50: 1500 nM
[9]
  IC50: 1000 nM
[6]
  IC50: 500 nM

## COC(=O)[C@@H]1c2cc3c(c(O)c2[C@@H](O[C@@H]2O[C@@H](C)[C@H](OC)[C@@](C)(OC)[C@H]2OC)C[C@]1(C)O)C(=O)c1c(O)cc2c(c1C3=O)O[C@@H]1O[C@@]2(C)[C@H](O)[C@@H](N(C)C)[C@@H]1O [Nogalamycin, nogalamycin]
[2]
  effect on ssDNA dependent ATPase activity of PfUDN: top four inhibitors
[2]; [10]
  IC50: 3300 nM
[3]
  effect on DNA unwinding (helicase) activity of PfUDN: inhibit the DNA unwinding activity of PfUDN effectively
  IC50: 3500 nM
[4]
  IC50: 2000 nM
[7]
  IC50: 5000 nM
[8]
  IC50: 500 nM
[5]
  IC50: 800 nM
[6]
  IC50: 500 nM

## Cc1c2oc3c(C)ccc(C(=O)N[C@@H]4C(=O)N[C@H](C(C)C)C(=O)N5CCC[C@H]5C(=O)N(C)CC(=O)N(C)[C@@H](C(C)C)C(=O)O[C@@H]4C)c3nc-2c(C(=O)N[C@@H]2C(=O)N[C@H](C(C)C)C(=O)N3CCC[C@H]3C(=O)N(C)CC(=O)N(C)[C@@H](C(C)C)C(=O)O[C@@H]2C)c(N)c1=O [actinomycin] (I: T[dV]P[Sar][NMeV] / II: T[dV]P[Sar][NMeV]; ester I:1-I:C, II:1-II:C; linker I:N-II:N via Actinocin(9to1))
[2]
  effect on ssDNA dependent ATPase activity of PfUDN: not able to considerably inhibit
[3]
  effect on DNA unwinding (helicase) activity of PfUDN: not able to considerably inhibit

## CC[C@@]1(O)C(=O)OCc2c1cc1n(c2=O)Cc2cc3ccccc3nc2-1 [camptothecin]
[2]
  effect on ssDNA dependent ATPase activity of PfUDN: not able to considerably inhibit
[3]
  effect on DNA unwinding (helicase) activity of PfUDN: not able to considerably inhibit

## N.N.[Cl][Pt][Cl] [cisplatin]
[2]
  effect on ssDNA dependent ATPase activity of PfUDN: not able to considerably inhibit
[3]
  effect on DNA unwinding (helicase) activity of PfUDN: not able to considerably inhibit

## O=P1(N(CCCl)CCCl)NCCCO1 (centres unmarked) [cyclophosphamide]
[2]
  effect on ssDNA dependent ATPase activity of PfUDN: not able to considerably inhibit
[3]
  effect on DNA unwinding (helicase) activity of PfUDN: not able to considerably inhibit

## COc1cc([C@@H]2c3cc4c(cc3[C@@H](O[C@@H]3O[C@@H]5CO[C@@H](C)O[C@H]5[C@H](O)[C@H]3O)[C@H]3COC(=O)[C@H]23)OCO4)cc(OC)c1O [etoposide]
[2]
  effect on ssDNA dependent ATPase activity of PfUDN: not able to considerably inhibit
[3]
  effect on DNA unwinding (helicase) activity of PfUDN: blocks the helicase activity appreciably
  effect on helicase activity of PfUDN at lower concentration: failed to show appreciable inhibition

## O=c1c(-c2ccc(O)cc2)coc2cc(O)cc(O)c12 [genistein]
[2]
  effect on ssDNA dependent ATPase activity of PfUDN: not able to considerably inhibit
[3]
  effect on DNA unwinding (helicase) activity of PfUDN: not able to considerably inhibit

## O=c1c(O)c(-c2ccc(O)cc2O)oc2cc(O)cc(O)c12 [morin]
[2]
  effect on ssDNA dependent ATPase activity of PfUDN: weakly inhibit
[3]
  effect on DNA unwinding (helicase) activity of PfUDN: not able to considerably inhibit

## CO[C@@H]1[C@@H](OC(N)=O)[C@@H](O)[C@H](Oc2ccc3c(O)c(NC(=O)c4ccc(O)c(CC=C(C)C)c4)c(=O)oc3c2C)OC1(C)C [novobiocin]
[2]
  effect on ssDNA dependent ATPase activity of PfUDN: not able to considerably inhibit
[3]
  effect on DNA unwinding (helicase) activity of PfUDN: not able to considerably inhibit
